{"source": "patent US10143666B2", "about": "“Small molecule inhibitors targeting CAG-repeat RNA toxicity in polyglutamine diseases” (The Chinese University of Hong Kong, priority 2015, dated 2018)", "key": {"DsRedCAG100 fly": {"tested_on": "DsRedCAG100 fly", "assay": "Pseudopupil assay in DsRedCAG100 fly (expanded CAG-repeat RNA toxicity)", "assay_type": "in vivo, Drosophila", "details": "12 day-old adult flies", "from_the_text": "The synthesis of DB213 was described in Marcheschi et al. (Scheme 1)^12, see FIG. 1. By using a MJD (one kind of polyQ diseases) Drosophila disease model, the inventors established an effective screening platform to test a series of synthesized small molecules for their activity to suppress polyQ-induced neurodegeneration. […] To test whether the compounds acted on CAG-repeat RNA level, another Drosophila model, DsRedCAG100^6, was employed. […] Therefore, DB213 was confirmed to modulate expanded CAG-repeat RNA-mediated toxicity in vivo.\n(§1) Flies were raised at 21.5° C. on cornmeal medium supplemented with dry yeast. Pseudopupil assay was performed on 12 day-old adult flies as mentioned previously^18. Images were captured by SPOT Insight CCD camera controlled by the SPOT Advanced software (Diagnostic instruments Inc.). External eye assay was performed on 12 day-old adult flies by Olympus SZX-12 stereomicroscope. Eye images were captured using a SPOT Insight CCD camera (Diagnostic instruments Inc.)."}, "[1]": {"details": "mouse, in vivo, iv, 50 mg/kg", "quoted_text": "Body temperature was measured from rectum on day 1 (baseline), and on days 3, 5 and 7.\nBody temperature was measured from rectum on day 1 (baseline) and on days 3, 5 and 7."}, "r(CAG)7 RNA": {"target": "r(CAG)7 RNA", "assay": "Isothermal titration calorimetry (ITC) binding assay", "details": "25° C., DB213 800 μM titrated to r(CAG)7 RNA 40 μM, one binding site model", "method": "It was next investigated that whether DB213 would interact physically with CAG-repeat RNA and sequestrate the toxic RNA species from their pathogenic pathway. Isothermal titration calorimetry (ITC)^17 was adopted to identify the RNA-binding property of DB213.\nExperiments were carried out using a MicroCal iTC200 isothermal titration calorimeter (GE Healthcare) at 25° C. Data were analyzed using the Origin® scientific plotting software version 7 (Microcal Software Inc.). DB213 (800 μM) was titrated to synthesized r(CAG)7 RNA (40 μM). The thermal titration data were fitted to the ‘one binding site model’ to determine the dissociation constant (KD)."}, "R6/2 Huntington's mice": {"tested_on": "R6/2 Huntington's mice", "assay": "Tolerability / mortality in R6/2 Huntington's mice after i.n. or i.v. dosing", "details": "for Mice lost in total: all dose groups; for Highest tolerated dose: R6/2 mice", "method": "The objective of this study was to investigate the tolerability of i.n. or i.v. administrated Compound-5 (DB213) treatment on 1) neurological index (NI) scores, 2) body weight, 3) body temperature and 4) activity in open field test in R6/2 Huntington's mice.\ni.n.: Group 1: 3 female and 3 male R6/2 mice treated with i.n. vehicle starting at 6 weeks of age and continuing for 7 days; Group 2: 3 female and 3 male R6/2 mice treated i.n. daily with Compound-5 at 50 mg/kg starting at 6 weeks of age and continuing for 7 days; Group 3: 3 female and 3 male R6/2 mice treated i.n. daily with Compound-5 at 100 mg/kg starting at 6 weeks of age and continuing for 7 days; Group 4: 3 female and 3 male R6/2 mice treated i.n. daily with Compound-5 at 200 mg/kg starting at 6 weeks of age and continuing for 7 days; Group 5: 3 female and 3 male R6/2 mice treated i.n. daily with Compound-5 at 300 mg/kg starting at 6 weeks of age and continuing for 7 days.\nCompound-5 or vehicle was administered i.n. daily or i.v. twice-a-week starting at 6 weeks of age for 7 days.\ni.v. administration: mice received 2 weekly i.v. injections into the tail vein. Mice were weighed on each treatment day and the dose adjusted accordingly to 1 ml/kg dose volume. For example, a mouse with a 30 g body weight received an i.v. injection of 30 μl. The whole i.v. injection process took 5-8 min per mouse.\ni.n. administration: using a three fingered scruff, each mouse was restrained twice and held with neck parallel to the table while the compound was administered. The volume was 0.56 ml/kg. For example, a mouse with a 30 g body weight received in total 16.8 μl. During each restraint, 8.4 μl was administered to the left nostril as two 4.2 μl drops, followed by a 15 sec hold, and 8.4 μl was administered to the right nostril as two 4.2 μl drops, followed by a 15 sec hold. Notes were taken on the success of delivery and any lost volume greater than 2 μl were re-administered.\nAnimals were monitored twice-a-day by laboratory personnel (8 am and […]). […] Definitions of acceptable endpoints included: no spontaneous movements and inability to drink or eat in 24-h observation period, massive bleeding, spontaneous inflammation, missing anatomy, swelling or tumors larger than 20 mm, and inability to right itself in 30 sec period."}, "CGG90 fly": {"tested_on": "CGG90 fly", "assay": "Neurodegeneration in CGG90 fly (Fragile X syndrome model)", "assay_type": "in vivo, Drosophila", "method": "(§2) Other disease fly models, including α-synuclein (Parkinson's disease)^13, CTG480 (Myotonic dystrophy 1)^14 and CGG90 (Fragile X syndrome)^15 were employed to address the specificity of DB213 on trinucleotide repeat expansion RNA toxicity.\nas §1"}, "trMJDCAA/G78 cells": {"tested_on": "trMJDCAA/G78 cells", "assay": "LDH cytotoxicity assay, trMJDCAA/G78 cell model", "assay_type": "cell-based, human", "details": "only trMJDQ78 protein toxicity", "method": "It was next investigated whether DB213 could mitigate expanded CAG-repeat RNA-mediated toxicity in SK-N-MC human neuronal cell. […] Taken together, DB213 could suppress the expanded CAG RNA-mediated but not polyQ protein-mediate toxicity in human neuronal cell.\nSK-N-MC human neuronal cells were seeded on a 24-well plate and lactate dehydrogenase enzyme activity in the cell culture medium was measured 72 hours post-transfection and drugs treatment using the Cytotox 96 non-radioactive cytotoxicity assay (Promega)."}, "α-synuclein fly": {"tested_on": "α-synuclein fly", "assay": "Neurodegeneration in α-synuclein fly (Parkinson's disease model)", "assay_type": "in vivo, Drosophila", "method": "as §2, §1"}, "CTG480 fly": {"tested_on": "CTG480 fly", "assay": "Neurodegeneration in CTG480 fly (Myotonic dystrophy 1 model)", "assay_type": "in vivo, Drosophila", "method": "as §2, §1"}, "[2]": {"details": "i.v. 200 mg/kg group (so in the source)"}, "[3]": {"details": "i.v. 300 mg/kg group (so in the source)"}}, "data": [{"smiles": "CN(C)CCCNC(=N)c1ccc(C(=N)NCCCN(C)C)cc1.Cl.Cl.Cl.Cl", "note": "[DB213]", "values": [{"measurement": "Suppression of DsRedCAG100 RNA-mediated toxicity (neurodegeneration)", "setting": "DsRedCAG100 fly", "value": "suppressed the DsRedCAG100 RNA-mediated toxicity in a dose-dependent manner"}, {"measurement": "Body temperature (group Mean)", "setting": "[1]", "value": 37.5}, {"measurement": "Kd", "setting": "r(CAG)7 RNA", "value": "1530 ± 250", "unit": "nM"}, {"measurement": "Mortality", "setting": "R6/2 Huntington's mice; both intranasal and intravenous treatment", "value": "increase mortality in dose-dependent manner"}, {"measurement": "Mice lost", "setting": "R6/2 Huntington's mice; i.n. daily 50 mg/kg, 7 days", "value": 1, "unit": "mouse"}, {"measurement": "Mice lost, share of group", "setting": "R6/2 Huntington's mice; i.n. daily 50 mg/kg, 7 days", "value": 16.7, "unit": "%"}, {"measurement": "Mice lost", "setting": "R6/2 Huntington's mice; i.n. daily 100 mg/kg, 7 days", "value": 2, "unit": "mice"}, {"measurement": "Mice lost, share of group", "setting": "R6/2 Huntington's mice; i.n. daily 100 mg/kg, 7 days", "value": 33.3, "unit": "%"}, {"measurement": "Mice lost", "setting": "R6/2 Huntington's mice; i.n. daily 200 mg/kg, 7 days", "value": 4, "unit": "mice"}, {"measurement": "Mice lost, share of group", "setting": "R6/2 Huntington's mice; i.n. daily 200 mg/kg, 7 days", "value": 66.7, "unit": "%"}, {"measurement": "Mice lost", "setting": "R6/2 Huntington's mice; i.n. daily 300 mg/kg, 7 days", "value": 3, "unit": "mice"}, {"measurement": "Mice lost, share of group", "setting": "R6/2 Huntington's mice; i.n. daily 300 mg/kg, 7 days", "value": 50, "unit": "%"}, {"measurement": "Mice lost in total", "setting": "R6/2 Huntington's mice; i.n. daily, 7 days", "value": 10, "unit": "mice"}, {"measurement": "Mice lost", "setting": "R6/2 Huntington's mice; [2]", "value": 2, "unit": "mice"}, {"measurement": "Mice lost, share of group", "setting": "R6/2 Huntington's mice; [2]", "value": 100, "unit": "%"}, {"measurement": "Mice lost", "setting": "R6/2 Huntington's mice; [3]", "value": 2, "unit": "mice"}, {"measurement": "Mice lost, share of group", "setting": "R6/2 Huntington's mice; [3]", "value": 100, "unit": "%"}, {"measurement": "Mice lost", "setting": "R6/2 Huntington's mice; i.v. twice-a-week 25 mg/kg", "value": 1, "unit": "mouse"}, {"measurement": "Mice lost, share of group", "setting": "R6/2 Huntington's mice; i.v. twice-a-week 25 mg/kg", "value": 12.5, "unit": "%"}, {"measurement": "Mice lost", "setting": "R6/2 Huntington's mice; i.v. twice-a-week 50 mg/kg", "value": 3, "unit": "mice"}, {"measurement": "Mice lost, share of group", "setting": "R6/2 Huntington's mice; i.v. twice-a-week 50 mg/kg", "value": 75, "unit": "%"}, {"measurement": "Mice lost in total", "setting": "R6/2 Huntington's mice; i.v. twice-a-week", "value": 8, "unit": "mice"}, {"measurement": "Highest tolerated dose", "setting": "R6/2 Huntington's mice; intranasally", "value": "50 to 100", "unit": "mg/kg"}, {"measurement": "Highest tolerated dose", "setting": "R6/2 Huntington's mice; intravenously", "value": "12.5 to 25", "unit": "mg/kg"}, {"measurement": "Suppression of neurodegeneration", "setting": "CGG90 fly", "value": "did not suppress the neurodegeneration"}, {"measurement": "Cell death level (LDH assay)", "setting": "trMJDCAA/G78 cells", "value": "did not alter the cell death level"}, {"measurement": "Suppression of neurodegeneration", "setting": "α-synuclein fly", "value": "did not suppress the neurodegeneration"}, {"measurement": "Suppression of neurodegeneration", "setting": "CTG480 fly", "value": "did not suppress the neurodegeneration"}]}]}
